Source: PubChem BioAssay (NCI)
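Following 48 hours of exposure in 96-well plates, responses at five concentrations were used to interpolate endpoints linearly. The concentration for full growth arrest is given as TGI.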

Assays:
Test in all cases: DTP human tumour cell line panel, 48 h
LOX IMVI melanoma = system: LOX IMVI melanoma
SN12C renal = system: SN12C renal
MDA-MB-231 breast = system: MDA-MB-231 breast
MDA-N = system: MDA-N
MALME-3M melanoma = system: MALME-3M melanoma
BT-549 breast = system: BT-549 breast
M14 melanoma = system: M14 melanoma
SF-268 CNS = system: SF-268 CNS
SF-539 CNS = system: SF-539 CNS
HOP-92 NSCLC = system: HOP-92 NSCLC
NCI-H522 lung = system: NCI-H522 lung
OVCAR-8 ovarian = system: OVCAR-8 ovarian
KM12 colon = system: KM12 colon
COLO 205 colon = system: COLO 205 colon
CCRF-CEM leukemia = system: CCRF-CEM leukemia
RXF 393 renal = system: RXF 393 renal
NCI-H226 lung = system: NCI-H226 lung
ACHN renal = system: ACHN renal
NCI-H460 lung = system: NCI-H460 lung
SR leukemia = system: SR leukemia
OVCAR-4 ovarian = system: OVCAR-4 ovarian
RPMI-8226 leukemia = system: RPMI-8226 leukemia
SK-MEL-2 melanoma = system: SK-MEL-2 melanoma
HOP-62 NSCLC = system: HOP-62 NSCLC
U251 CNS = system: U251 CNS
MOLT-4 leukemia = system: MOLT-4 leukemia
DU-145 prostate = system: DU-145 prostate
NCI/ADR-RES ovarian = system: NCI/ADR-RES ovarian
786-0 renal = system: 786-0 renal
UACC-62 melanoma = system: UACC-62 melanoma
SK-OV-3 ovarian = system: SK-OV-3 ovarian
SF-295 CNS = system: SF-295 CNS
HCT-15 colon = system: HCT-15 colon
CAKI-1 renal = system: CAKI-1 renal
K-562 leukemia = system: K-562 leukemia
A549 NSCLC = system: A549 NSCLC
UO-31 renal = system: UO-31 renal
MDA-MB-435 = system: MDA-MB-435
SNB-75 CNS = system: SNB-75 CNS
EKVX NSCLC = system: EKVX NSCLC
PC-3 prostate = system: PC-3 prostate
HCC-2998 colon = system: HCC-2998 colon
SNB-19 CNS = system: SNB-19 CNS
MCF7 breast = system: MCF7 breast
T-47D breast = system: T-47D breast
HS 578T breast = system: HS 578T breast
HT29 colon = system: HT29 colon
A498 renal = system: A498 renal
IGROV1 ovarian = system: IGROV1 ovarian
HCT-116 colon = system: HCT-116 colon
OVCAR-3 ovarian = system: OVCAR-3 ovarian
SK-MEL-28 melanoma = system: SK-MEL-28 melanoma
TK-10 renal = system: TK-10 renal
UACC-257 melanoma = system: UACC-257 melanoma
SW-620 colon = system: SW-620 colon
HL-60(TB) leukemia = system: HL-60(TB) leukemia
NCI-H23 lung = system: NCI-H23 lung
SK-MEL-5 melanoma = system: SK-MEL-5 melanoma
OVCAR-5 ovarian = system: OVCAR-5 ovarian
DMS 114 small cell lung = system: DMS 114 small cell lung
M19-MEL melanoma = system: M19-MEL melanoma
DMS 273 small cell lung = system: DMS 273 small cell lung
XF 498 CNS = system: XF 498 CNS

CCOC(=O)/C(C#N)=C/c1ccc2c(c1)CC1(C2)Cc2cc(CC)c(C(C)O)cc2C1 (stereo not drawn)
TGI (LOX IMVI melanoma): 22 µM | TGI (SN12C renal): 32.4 µM | TGI (MDA-MB-231 breast): 27.1 µM | TGI (MDA-N): 5.16 µM | TGI (MALME-3M melanoma): 24.4 µM | TGI (BT-549 breast): 23.4 µM | TGI (M14 melanoma): 16.8 µM | TGI (SF-268 CNS): 32.1 µM | TGI (SF-539 CNS): 22.1 µM | TGI (HOP-92 NSCLC): 47.9 µM | TGI (NCI-H522 lung): > 100 µM | TGI (OVCAR-8 ovarian): 44.4 µM | TGI (KM12 colon): 38.8 µM | TGI (COLO 205 colon): 66.2 µM | TGI (CCRF-CEM leukemia): 27.2 µM | TGI (RXF 393 renal): 38.5 µM | TGI (NCI-H226 lung): > 64.6 µM | TGI (ACHN renal): > 85.1 µM | TGI (NCI-H460 lung): 77.1 µM | TGI (SR leukemia): > 28.9 µM | TGI (OVCAR-4 ovarian): 49 µM | TGI (RPMI-8226 leukemia): 51.6 µM | TGI (SK-MEL-2 melanoma): 27.2 µM | TGI (HOP-62 NSCLC): 36 µM | TGI (U251 CNS): 20.3 µM | TGI (MOLT-4 leukemia): > 58.6 µM | TGI (DU-145 prostate): 56.1 µM | TGI (NCI/ADR-RES ovarian): 55.9 µM | TGI (786-0 renal): 39 µM | TGI (UACC-62 melanoma): 29.5 µM | TGI (SK-OV-3 ovarian): 98.2 µM | TGI (SF-295 CNS): 44.3 µM | TGI (HCT-15 colon): 20 µM | TGI (CAKI-1 renal): > 100 µM | TGI (K-562 leukemia): > 52.5 µM | TGI (A549 NSCLC): > 100 µM | TGI (UO-31 renal): 60.8 µM | TGI (MDA-MB-435): 4.83 µM | TGI (SNB-75 CNS): 46.3 µM | TGI (EKVX NSCLC): > 100 µM | TGI (PC-3 prostate): 56.8 µM | TGI (HCC-2998 colon): > 80.9 µM | TGI (SNB-19 CNS): 43.8 µM | TGI (MCF7 breast): 23.9 µM | TGI (T-47D breast): > 100 µM | TGI (HS 578T breast): 60.8 µM | TGI (HT29 colon): 39.5 µM | TGI (A498 renal): > 90.4 µM | TGI (IGROV1 ovarian): 57 µM | TGI (HCT-116 colon): 15 µM | TGI (OVCAR-3 ovarian): 22.4 µM | TGI (SK-MEL-28 melanoma): 38.9 µM | TGI (TK-10 renal): 84.2 µM | TGI (UACC-257 melanoma): 45.6 µM | TGI (SW-620 colon): 22.5 µM | TGI (HL-60(TB) leukemia): 8.51 µM | TGI (NCI-H23 lung): 39.5 µM | TGI (SK-MEL-5 melanoma): 16.8 µM | TGI (OVCAR-5 ovarian): > 93.1 µM

Nc1ccc([C@H]2C(=O)N[C@H]3CCC[C@H]32)cc1
TGI (LOX IMVI melanoma): > 100 µM | TGI (SN12C renal): > 100 µM | TGI (DMS 114 small cell lung): > 100 µM | TGI (M19-MEL melanoma): > 100 µM | TGI (DMS 273 small cell lung): > 100 µM | TGI (M14 melanoma): > 100 µM | TGI (SF-268 CNS): > 100 µM | TGI (SF-539 CNS): > 100 µM | TGI (NCI-H522 lung): > 100 µM | TGI (OVCAR-8 ovarian): > 100 µM | TGI (KM12 colon): > 100 µM | TGI (XF 498 CNS): > 100 µM | TGI (COLO 205 colon): > 100 µM | TGI (CCRF-CEM leukemia): > 100 µM | TGI (RXF 393 renal): > 100 µM | TGI (NCI-H226 lung): > 100 µM | TGI (RPMI-8226 leukemia): > 100 µM | TGI (MOLT-4 leukemia): > 100 µM | TGI (UACC-62 melanoma): > 100 µM | TGI (SK-OV-3 ovarian): > 100 µM | TGI (SF-295 CNS): > 100 µM | TGI (HCT-15 colon): > 100 µM | TGI (CAKI-1 renal): > 100 µM | TGI (K-562 leukemia): > 100 µM | TGI (A549 NSCLC): > 100 µM | TGI (UO-31 renal): > 100 µM | TGI (SNB-75 CNS): > 100 µM | TGI (EKVX NSCLC): > 100 µM | TGI (SNB-19 CNS): > 100 µM | TGI (HT29 colon): > 100 µM | TGI (IGROV1 ovarian): > 100 µM | TGI (OVCAR-3 ovarian): > 100 µM | TGI (SK-MEL-28 melanoma): > 100 µM | TGI (TK-10 renal): > 100 µM | TGI (UACC-257 melanoma): > 100 µM | TGI (SW-620 colon): > 100 µM | TGI (HL-60(TB) leukemia): > 100 µM | TGI (NCI-H23 lung): > 100 µM | TGI (SK-MEL-5 melanoma): > 100 µM
